{
  "source": "patent US20240082463A1",
  "about": "“COATED MEDICAL PRODUCT” (HEMOTEQ AG, priority 2020, published 2024)",
  "origin": "cited, not measured here",
  "settings": "cited from earlier work",
  "note": "Where two headings read alike, the source gives them in different places.",
  "data": [
    {"smiles": "C1CCCCCCCC1", "note": "[Cyclononan]", "values": [
      {"measurement": "logKOW", "setting": "Table 2, rounded values", "value": 5.1}
    ]},
    {"smiles": "ClCCl", "note": "[Dichloromethane]", "values": [
      {"measurement": "logKOW", "setting": "Table 6, rounded values", "value": "+1.3"},
      {"measurement": "logKOW", "setting": "Table 7", "value": 1.25}
    ]},
    {"smiles": "CC(C)c1ccccc1", "note": "[Cumol]", "values": [
      {"measurement": "logKOW", "setting": "Table 4", "value": 3.4}
    ]},
    {"smiles": "C1CCCCCCCCC1", "note": "[Cyclodecane]", "values": [
      {"measurement": "logKOW", "setting": "Table 2, rounded values", "value": 5.5}
    ]},
    {"smiles": "Cc1ccc(C)cc1", "note": "[p-Xylene]", "values": [
      {"measurement": "logKOW", "setting": "Table 4", "value": 3.2},
      {"measurement": "logKOW", "setting": "Table 8", "value": 3.15}
    ]},
    {"smiles": "CCCCCCCCC", "note": "[Nonan]", "values": [
      {"measurement": "logKOW", "setting": "Table 2, rounded values", "value": 5.7}
    ]},
    {"smiles": "Cc1ccccc1C", "note": "[o-Xylene]", "values": [
      {"measurement": "logKOW", "setting": "Table 4", "value": 3.1},
      {"measurement": "logKOW", "setting": "Table 8", "value": 3.12}
    ]},
    {"smiles": "CCCCCCC", "note": "[Heptane]", "values": [
      {"measurement": "logKOW", "setting": "Table 2, rounded values", "value": 4.5},
      {"measurement": "logKOW", "setting": "Table 8", "value": 4.50}
    ]},
    {"smiles": "ClC(Cl)(Cl)Cl", "note": "[Carbon tetrachloride]", "values": [
      {"measurement": "logKOW", "setting": "Table 3, rounded orientation values", "value": "approx. 2.8"},
      {"measurement": "logKOW", "setting": "Table 4", "value": 2.8}
    ]},
    {"smiles": "CCC(C)=O", "note": "[Solution 2-Butanone, 2-Butanone]", "values": [
      {"measurement": "logKOW", "setting": "Table 7", "value": 0.29}
    ]},
    {"smiles": "Cc1cccc(C)c1", "note": "[m-Xylene]", "values": [
      {"measurement": "logKOW", "setting": "Table 4", "value": 3.2},
      {"measurement": "logKOW", "setting": "Table 8", "value": 3.20}
    ]},
    {"smiles": "CN1CCCC1=O", "note": "[N-methylpyrrolidone]", "values": [
      {"measurement": "logKOW", "setting": "Table 6, rounded values", "value": "−0.5"}
    ]},
    {"smiles": "C1COCCO1", "note": "[1,4-Dioxane]", "values": [
      {"measurement": "logKOW", "setting": "Table 6, rounded values", "value": "−0.4"},
      {"measurement": "logKOW", "setting": "Table 7", "value": "−0.42"},
      {"measurement": "log KOW", "value": "about −0.4"}
    ]},
    {"smiles": "Clc1ccccc1Cl", "note": "[o-Dichlorobenzene]", "values": [
      {"measurement": "logKOW", "setting": "Table 4", "value": 3.4}
    ]},
    {"smiles": "CCCC(C)C", "note": "[2-Methylpentane]", "values": [
      {"measurement": "logKOW", "setting": "Table 2, rounded values", "value": 3.6}
    ]},
    {"smiles": "CC(C)=O", "note": "[Acetone]", "values": [
      {"measurement": "logKOW", "setting": "Table 6, rounded values", "value": "−0.2"},
      {"measurement": "logKOW", "setting": "Table 7", "value": "−0.24"}
    ]},
    {"smiles": "CCCC(C)(C)C", "note": "[2,2-Dimethylpentane]", "values": [
      {"measurement": "logKOW", "setting": "Table 2, rounded values", "value": 3.8}
    ]},
    {"smiles": "CC(C)Cc1ccccc1", "note": "[iso-butylbenzene]", "values": [
      {"measurement": "logKOW", "setting": "Table 4", "value": 4.1}
    ]},
    {"smiles": "O", "note": "[Water]", "values": [
      {"measurement": "logKOW", "setting": "Table 5, rounded orientation values", "value": "approx. −1.4"}
    ]},
    {"smiles": "CCC(C)C(C)C", "note": "(stereo not shown) [2,3-Dimethylpentane]", "values": [
      {"measurement": "logKOW", "setting": "Table 2, rounded values", "value": 3.8}
    ]},
    {"smiles": "CCCCC(C)C", "note": "[2-Methylhexane]", "values": [
      {"measurement": "logKOW", "setting": "Table 2, rounded values", "value": 3.7}
    ]},
    {"smiles": "CC#N", "note": "[Acetonitrile]", "values": [
      {"measurement": "logKOW", "setting": "Table 6, rounded values", "value": "−0.3"},
      {"measurement": "logKOW", "setting": "Table 7", "value": "−0.34"}
    ]},
    {"smiles": "CCCCCCCC", "note": "[Octane]", "values": [
      {"measurement": "logKOW", "setting": "Table 2, rounded values", "value": 5.2}
    ]},
    {"smiles": "CC1CCCCC1", "note": "[Methylcyclohexane]", "values": [
      {"measurement": "logKOW", "setting": "Table 2, rounded values", "value": 3.9}
    ]},
    {"smiles": "CO", "note": "[Methanol]", "values": [
      {"measurement": "logKOW", "setting": "Table 6, rounded values", "value": "−0.7"},
      {"measurement": "logKOW", "setting": "Table 7", "value": "−0.74"}
    ]},
    {"smiles": "Clc1ccccc1", "note": "[Chlorobenzene]", "values": [
      {"measurement": "logKOW", "setting": "Table 4", "value": 2.9},
      {"measurement": "log KOW", "value": "about 2.9"}
    ]},
    {"smiles": "C1CCCCCC1", "note": "[Cycloheptane]", "values": [
      {"measurement": "logKOW", "setting": "Table 2, rounded values", "value": 4}
    ]},
    {"smiles": "CCOC(C)=O", "note": "[Ethyl acetate]", "values": [
      {"measurement": "logKOW", "setting": "Table 6, rounded values", "value": "+0.7"},
      {"measurement": "logKOW", "setting": "Table 7", "value": 0.73}
    ]},
    {"smiles": "CCCOCCC", "note": "[Dipropyl ether]", "values": [
      {"measurement": "logKOW", "setting": "Table 6, rounded values", "value": "+2.0"}
    ]},
    {"smiles": "CCc1ccccc1", "note": "[Ethylbenzene]", "values": [
      {"measurement": "logKOW", "setting": "Table 4", "value": 3.2}
    ]},
    {"smiles": "CCOCC", "note": "[Diethyl ether]", "values": [
      {"measurement": "logKOW", "setting": "Table 6, rounded values", "value": "+0.9"},
      {"measurement": "logKOW", "setting": "Table 7", "value": 0.89}
    ]},
    {"smiles": "CC(C)(C)C1CCCCC1", "note": "[tert-butylcyclohexane]", "values": [
      {"measurement": "logKOW", "setting": "Table 2, rounded values", "value": 4.0}
    ]},
    {"smiles": "CC(C)Cc1ccccc1", "note": "[2-Methyl-1-phenylpropane]", "values": [
      {"measurement": "logKOW", "setting": "Table 4", "value": 3.4}
    ]},
    {"smiles": "C1CCOC1", "note": "[Tetrahydrofuran (THF), Tetrahydrofuran]", "values": [
      {"measurement": "logKOW", "setting": "Table 6, rounded values", "value": "+0.5"},
      {"measurement": "logKOW", "setting": "Table 7", "value": 0.46}
    ]},
    {"smiles": "CCCCCCCCCC", "note": "[Decan]", "values": [
      {"measurement": "logKOW", "setting": "Table 2, rounded values", "value": 6.3}
    ]},
    {"smiles": "OCC(O)CO", "note": "[Glycerin]", "values": [
      {"measurement": "logKOW", "setting": "Table 6, rounded values", "value": "−1.8"}
    ]},
    {"smiles": "CCOc1ccccc1", "note": "[Ethoxybenzene]", "values": [
      {"measurement": "logKOW", "setting": "Table 4", "value": 2.5}
    ]},
    {"smiles": "CC(C)CC(C)(C)C", "note": "[2,2,4-Trimethylpentane]", "values": [
      {"measurement": "logKOW", "setting": "Table 2, rounded values", "value": 4.1}
    ]},
    {"smiles": "CC1CCCC1", "note": "[Methylcyclopentane]", "values": [
      {"measurement": "logKOW", "setting": "Table 2, rounded values", "value": 3.4}
    ]},
    {"smiles": "CCC(C)C", "note": "[Isopentane]", "values": [
      {"measurement": "logKOW", "setting": "Table 2, rounded values", "value": 3.2}
    ]},
    {"smiles": "CCCCc1ccccc1", "note": "[1-Phenylbutane]", "values": [
      {"measurement": "logKOW", "setting": "Table 4", "value": 3.4}
    ]},
    {"smiles": "CCC(C)(C)C", "note": "[2,2-Dimethylbutane]", "values": [
      {"measurement": "logKOW", "setting": "Table 2, rounded values", "value": 3.8}
    ]},
    {"smiles": "CCCOC(C)=O", "note": "[n-Propyl acetate]", "values": [
      {"measurement": "logKOW", "setting": "Table 6, rounded values", "value": "+1.4"}
    ]},
    {"smiles": "COc1ccccc1", "note": "[Anisol]", "values": [
      {"measurement": "logKOW", "setting": "Table 4", "value": 2.1}
    ]},
    {"smiles": "CCC(=O)O", "note": "[Propionic acid]", "values": [
      {"measurement": "logKOW", "setting": "Table 7", "value": 0.32}
    ]},
    {"smiles": "C1CCCC1", "note": "[Cyclopentane]", "values": [
      {"measurement": "logKOW", "setting": "Table 2, rounded values", "value": 3.0},
      {"measurement": "logKOW", "setting": "Table 8", "value": 3.00}
    ]},
    {"smiles": "CCC(C)c1ccccc1", "note": "(stereo not shown) [2-Phenylbutane]", "values": [
      {"measurement": "logKOW", "setting": "Table 4", "value": 3.4}
    ]},
    {"smiles": "FC(F)(F)C(F)(F)C(F)(F)C(F)(F)C(F)(F)C(F)(F)F", "note": "[Tetradecafluorohexane]", "values": [
      {"measurement": "logKOW", "setting": "Table 4", "value": 5.8}
    ]},
    {"smiles": "CCCC(C)=O", "note": "[Solution 2-Pentanone, 2-Pentanone]", "values": [
      {"measurement": "logKOW", "setting": "Table 6, rounded values", "value": "+0.9"},
      {"measurement": "logKOW", "setting": "Table 7", "value": 0.84}
    ]},
    {"smiles": "COC(C)=O", "note": "[Methyl acetate]", "values": [
      {"measurement": "logKOW", "setting": "Table 6, rounded values", "value": "+0.2"}
    ]}
  ]
}
